These results are taken from patent US12275684B2, “Methods for making and using endoxifen” (Atossa Therapeutics, Inc., priority 2017, dated 2025).

The series is described as follows: Safety and tolerability of oral (Z)-Endoxifen in healthy female volunteers. In kind it is in vivo, human. From the text: Study assessments included taking the subjects medical history, including evaluation of any on-study adverse events and concomitant medication use; height and weight; physical examination; periodic vital signs (body temperature, heart rate, respiratory rate, blood pressure); periodic 12-lead ECGs. […] Specific assessments to evaluate treatment safety included the following: the frequency and type of adverse events, clinical laboratory testing, 12-lead ECGs and vital signs. A modified FACT-ES® scoring questionnaire was used to assess symptomatology.
Safety endpoints were summarized by dose cohort, with placebos pooled across cohorts. Treatment-emergent AEs were coded using the latest version of MedDRA by System Organ Class (SOC) and Preferred Term, classified from verbatim terms. The incidence and frequency of AEs, and SAEs, were summarized by cohort according to SOC and Preferred Terms, and by severity and relationship. The duration of AEs was determined and included in listings, along with the action taken and outcome. Vital signs, ECG and safety laboratory parameters were summarized at each scheduled time point using descriptive statistics. Post-dose assessments were compared with baseline measurements. The incidence of laboratory abnormalities was summarized. Physical examination findings were presented in listings.

On to `CC/C(=C(\c1ccc(O)cc1)c1ccc(OCCNC)cc1)c1ccccc1` [(Z)-Endoxifen, (Z)-4-(1-(4-(2-(methylamino)ethoxy)phenyl)-2-phenylbut-1-enyl) phenol], for which the “subjects with treatment related AEs of moderate severity” value (5 of 18 subjects) is given as 28%. Besides, the “subjects with treatment-emergent AEs deemed related to study drug” value (15 of 18 subjects, oral 1-4 mg) was determined as 83%. Besides, the “number of treatment related AEs of moderate severity” value (18 subjects) was 6 AEs. For the setting “18 subjects, oral 1-4 mg”, the “number of treatment-related AEs” value is recorded as 41 AEs. Besides, for the setting “all AEs mild (75 of 84) or moderate (9 of 84), incl. placebo”, the “severity of AEs” value is listed as “no AEs classified as severe”. For the same compound, under “human, in vivo”, the “adverse events reported only in subjects who received (Z)-Endoxifen” value is “Upper respiratory infection, hot flush, abdominal distension, dry mouth, and menstruation delayed”; the “safety by clinical laboratory tests, vital signs, ECG, FACT-ES versus placebo” value is on record as “no clear differences in safety”.
